In patent publication US20040018500A1, “Methods and systems for analyzing complex biological systems” (priority 2001, published 2004):

Assays:
[1] = tested on: Saccharomyces cerevisiae wild type strain BY4743; experiment: AF1 metabolite analysis (GC-MS, LC-MS) of yeast treated with antifungal drugs; assay type: cell-based
[2] = tested on: Saccharomyces cerevisiae wild type strain BY4743; experiment: AF1 combined gene expression and metabolite data mapped to KEGG reactions and pathways; assay type: cell-based
Description: In AF1, two different technologies were utilized: gene expression analysis (for examination of mRNA expression) and metabolite analysis. […] As noted previously, existing metabolic databases may be helpful in practicing the methods and systems of the present invention, but many databases include limitations that make their use in data analysis and pathway mapping less than straightforward. […] This caveat to KEGG makes it difficult to pinpoint the correct pathway when attempting to link a gene to a specific pathway. […] The pathway score indicates how meaningful the mapping is, or how likely it is to be correctly indicative of the pathway involved in the perturbation under examination. The method provides a pathway score based on perturbation levels of genes and/or compounds and the information content of each gene and/or compound in the pathway, i.e., a pathway score indicates the extent to which other pathways are mapped to a gene/compound. For example, imagine that two genes are perturbed in a particular experiment. One gene maps to only one pathway, giving a high degree of probability that the perturbed pathway is the one identified in the mapping. The second gene maps to three pathways. In the later example, there is only one-third the probability that the pathway identified in the mapping is the one perturbed. The present invention provides a method for calculating the pathway scores, so that more weight is given to a score of a gene or compound that maps to only one pathway than to a score of a gene or compound that maps to multiple pathways. […] Where n=the total number of genes in the pathway; ipath—count=the number of pathways containing a gene; and j=the number of genes in the pathway that are perturbed. Another factor to be considered when weighting a pathway score is the degree of perturbation. Degree of perturbation can be calculated, for example, based on a number of standard deviations from a norm, and included in an equation such as the one shown above, so that not only the number of pathways is taken into account, but also accounts for the amount of gene transcript or compound present as compared to a control. Compounds were also linked to pathways using the KEGG database. […] Of the 676 compounds under consideration, 77 were detected in the AF1 samples. […] The multiple mapping feature of KEGG makes it difficult to pinpoint the correct pathway when trying to link a compound to a specific pathway. […] A pathway score calculation is applied to the compounds to account for both information content (number of pathways a compound maps to) and perturbation level. The data were then combined to determine the number of reactions showing an enzyme and at least one compound perturbed, and to determine the number of pathways having at least one enzyme and one perturbed compound perturbed. The results of the analysis are represented in Tables 16 and 17, and were difficult to interpret, illustrating that the ability to draw conclusions from compound mapping to pathways is limited when absent additional data.

CC(=O)N1CCN(c2ccc(OCC3COC(Cn4ccnc4)(c4ccc(Cl)cc4Cl)O3)cc2)CC1 (stereo not drawn) [Ketoconazole]
# Compounds perturbed ([1]; P < 0.1, yeast, 2×MIC, two hours): 15
Number of Reactions Having an Enzyme and at Least One Compound Perturbed [2]: 21

CC[C@@H]([C@H](C)O)n1ncn(-c2ccc(N3CCN(c4ccc(OC[C@@H]5CO[C@@](Cn6cncn6)(c6ccc(F)cc6F)C5)cc4)CC3)cc2)c1=O [Posaconazole]
Fold Change of ornithine3 ([1]; platform GC, p-Value 0.965157424): 0.041
Fold Change of phosphoenolpyruvate ([1]; platform LC, p-Value 1): 0
Fold Change of NacetylDglucosamine ([1]; platform nLC, p-Value 1): 0
Fold Change of NacetylLornithine ([1]; platform nLC, p-Value 1): 0
Fold Change of orotic acid ([1]; platform nLC, p-Value 1): 0
Fold Change of phenylpyruvic acid ([1]; platform nLC, p-Value 1): 0
Fold Change of phosphoenolpyruvate ([1]; platform nLC, p-Value 1): 0
Fold Change of pinitol ([1]; platform nLC, p-Value 1): 0
Fold Change of retinoic acid ([1]; platform nLC, p-Value 1): 0
Fold Change of salicylic/HObenzoic ([1]; platform nLC, p-Value 1): 0
Fold Change of shikimic acid ([1]; platform nLC, p-Value 1): 0
Fold Change of sinapinic acid ([1]; platform nLC, p-Value 1): 0
Fold Change of thymine ([1]; platform nLC, p-Value 1): 0
Fold Change of urocanic acid ([1]; platform nLC, p-Value 1): 0
Fold Change of xanthosineDiH2O ([1]; platform nLC, p-Value 1): 0
Fold Change of zeatin ([1]; platform nLC, p-Value 1): 0
Fold Change of NacetylLglucosamine ([1]; platform pLC, p-Value 1): 0
Fold Change of NacetylLglutamate ([1]; platform pLC, p-Value 1): 0
Fold Change of niacinamide ([1]; platform pLC, p-Value 1): 0
Fold Change of nopaline ([1]; platform pLC, p-Value 1): 0
Fold Change of progesterone ([1]; platform pLC, p-Value 1): 0
Fold Change of riboflavin ([1]; platform pLC, p-Value 1): 0
Fold Change of sugar-phosphate ([1]; platform pLC, p-Value 1): 0
Fold Change of thiamine ([1]; platform pLC, p-Value 1): 0
Fold Change of thymine ([1]; platform pLC, p-Value 1): 0
Fold Change of tryptophan ([1]; platform pLC, p-Value 1): 0
Fold Change of uric acid ([1]; platform pLC, p-Value 1): 0
Fold Change of urocanic acid ([1]; platform pLC, p-Value 1): 0
Fold Change of xanthosine(diH2O) ([1]; platform pLC, p-Value 1): 0
Fold Change of zeatin ([1]; platform pLC, p-Value 1): 0
Number of Reactions Having an Enzyme and at Least One Compound Perturbed [2]: 0
